What all share (format): in vivo
One test deals with Lepr db mouse. Briefly: OGT (1 g glucose/kg) combined with oral administration of the active ingredient; postprandial glucose and insulin. On the set-up: Serum insulin levels: unit not given here. The following applies: for Serum glucose levels: in mg/dL (unit assumed). On the procedure:
Acute effects of a nutritional formula, Starlix® and 4-HI on glycemic control in the type 2 diabetes animal model (Lepr db mouse) were studied. Animals underwent an OGT (1 g glucose/kg) combined with oral administration of the active ingredient. The following groups were tested: (A) placebo (2% Tween 80, 20 ml/kg), (B) 4-HI (100 mg/kg), (C) guar gum (150 mg/kg), (D) Starlix® (65 mg/kg), (E) Starlix®+4-HI, and (F) Starlix®+guar gum. Postprandial glucose and insulin were studied at 0, 30, 60 and 90 min.

Test [1] is described as follows: Body weight and weight gain of Lepr db/db mice fed different fatty acid diets for 6 wks. To be noted: for Body wt at 6 wks: 6 wks after dietary intervention; for Wt gain at 6 wks: 6 wks of diet. The method, then:
(§1) C57BLKS/J-Lepr^db/db male mice (4 wks of age) were obtained from Jackson Laboratory, Bar Harbor, Me. Mice were initially maintained on commercial chow for 2 wks, followed by a purified stabilization diet providing 40% en as fat and 2% en as linoleic acid (LA, 18:2n-6) for another 2 wks. At 8 wks of age, a baseline oral glucose tolerance test was conducted. Based on their OGTT profile, mice were evenly distributed among 6 groups (n=6 per each group) and were fed one of 6 experimental diets designed to establish the relative importance of specific fatty acid supplementation on ameliorating insulin resistance.
(§2) Table 1 gives the predicted fatty acid profile (% en) for the 6 experimental diets. The control diet, based on butter and palm oil blend, provided 40% en as fat with 2% en as LA. […] These Lepr db/db mice were fed one of the above 6 diets for 6 weeks.
(§3) Body weights of animals were recorded each week. Insulin tolerance testing was performed after 6 weeks of dietary intervention. Mice (non-fasted) were injected intraperitoneally with 1.5 U/kg human insulin and blood glucose concentrations were determined at 0, 15, 30 and 60 min after insulin injection by tail bleeding, using a glucometer. A week later, fasting blood samples were collected by cardiac puncture, under Co2/O2 anesthesia, for analysis of plasma insulin, triglyceride (TG) and total cholesterol (TC). […] Plasma insulin was determined using the RIA kit (Linco research Inc, MO).

The subject of test [2] is Lepr db/db mice. Briefly: Insulin tolerance testing (blood glucose after i.p. human insulin) after 6 weeks of dietary intervention. To be noted: 1.5 U/kg human insulin i.p. On the procedure: as §1, §2, §3
Test [3] concerns Lepr db/db mice. Briefly: Fasting plasma lipids (TG, TC) in Lepr db/db mice fed different fatty acids. To be noted: after diet feeding. On the procedure: as §1, §2, §3

Each structure is given as a SMILES string. Marks after values point to notes of the source that are not given here.

For the compound `C[C@@H]([C@H](C)O)[C@H](N)C(=O)O` [4HI, 4-hydroxyisoleucine], the Serum insulin levels with Lepr db mouse (0 min of OGT) amounted to 8.17; in the test on Lepr db mouse (30 min of OGT), 11.27; with Lepr db mouse (60 min of OGT) it was 6.41; with Lepr db mouse (90 min of OGT) it was 4.63. In addition, the Serum glucose levels in the test on Lepr db mouse (0 min of OGT) is recorded as 227.7; in the test on Lepr db mouse (30 min of OGT), 473.7; in the test on Lepr db mouse (60 min of OGT), 494.7; in the test with Lepr db mouse (90 min of OGT), 584.
Turning to `CC/C=C\C/C=C\C/C=C\C/C=C\C/C=C\C/C=C\CCC(=O)O` [DHA, docosahexaenoic acid], the “Body wt at 6 wks” value in test [1] is given as 48.9 ± 3.8 g. For the same compound, in test [1], the “Wt gain at 6 wks” value amounted to 6.1 ± 5.2 g. For the same compound, the “Mean blood glucose values (percentage of intial) after insulin administration” value in the test on Lepr db/db mice [2] (0 min, non-fasted) was 100 percentage of intial; in the test with Lepr db/db mice [2] (15 min), 131 percentage of intial; in the test with Lepr db/db mice [2] (30 min), 120 percentage of intial; in the test on Lepr db/db mice [2] (60 min) it was 99 percentage of intial. For the same compound, in the test on Lepr db/db mice [3], the “Fasting plasma TC” value is on record as 288 ± 39 ^ mg/dl. In addition, in the test on Lepr db/db mice [3], the “Fasting plasma TG” value is 101 ± 14^a,c mg/dl.
Turning to `CCCCC/C=C\C/C=C\CCCCCCCC(=O)O` [LA, linoleic acid], in test [1], the “Body wt at 6 wks” value amounted to 43.9 ± 5.4 g. In addition, the “Wt gain at 6 wks” value in test [1] was found to be 2.5 ± 4.3 g. Besides, the “Mean blood glucose values (percentage of intial) after insulin administration” value in the test on Lepr db/db mice [2] (0 min, non-fasted) is reported as 100 percentage of intial; in the test with Lepr db/db mice [2] (15 min) it was 135 percentage of intial; with Lepr db/db mice [2] (30 min), 115 percentage of intial; in the test with Lepr db/db mice [2] (60 min) it was 85 percentage of intial. Moreover, the “Fasting plasma TC” value with Lepr db/db mice [3] is reported as 313 ± 28 ^ mg/dl. Besides, the “Fasting plasma TG” value in the test on Lepr db/db mice [3] is 120 ± 24^a,b mg/dl.
Regarding `CC/C=C\C/C=C\C/C=C\CCCCCCCC(=O)O` [LNA, linolenic acid], the “Body wt at 6 wks” value in test [1] turned out to be 50.5 ± 2.4 g. In test [1], the “Wt gain at 6 wks” value amounted to 8.3 ± 4 g. The “Mean blood glucose values (percentage of intial) after insulin administration” value with Lepr db/db mice [2] (0 min, non-fasted) is on record as 100 percentage of intial; with Lepr db/db mice [2] (15 min) it was 138 percentage of intial; in the test on Lepr db/db mice [2] (30 min), 127 percentage of intial; in the test with Lepr db/db mice [2] (60 min), 100 percentage of intial. Also, in the test with Lepr db/db mice [3], the “Fasting plasma TC” value was 326 ± 13^ mg/dl. Also, the “Fasting plasma TG” value in the test on Lepr db/db mice [3] was 142 ± 27^b mg/dl.
Regarding `CC(C)[C@H]1CC[C@H](C(=O)N[C@H](Cc2ccccc2)C(=O)O)CC1` [Starlix, nateglinide], the Serum insulin levels in the test with Lepr db mouse (0 min of OGT) was 9.8; with Lepr db mouse (30 min of OGT), 11.18; in the test on Lepr db mouse (60 min of OGT) it was 5.38; in the test on Lepr db mouse (90 min of OGT), 3.75. In addition, the Serum glucose levels in the test with Lepr db mouse (0 min of OGT) is listed as 210; in the test with Lepr db mouse (30 min of OGT) it was 456.7; with Lepr db mouse (60 min of OGT) it was 497.3; in the test with Lepr db mouse (90 min of OGT), 599. For the same compound, the “Hypoglycemic effect, in words” value in the test with Lepr db mouse (serum glucose in OGT) is “significant hypoglycemic effect at T90”.
